Data on four compounds can be found in PMC11346435, “Regulation of Rubisco activity by interaction with chloroplast metabolites” (Biochemical Journal, 2024).

Like-named read-outs stand apart in the source and are kept apart here.

Data set [1] addresses T1, Rubisco (ribulose-1,5-bisphosphate carboxylase/oxygenase), carbamylated rice enzyme (Oryza sativa, UniProt P0C512).
T1 construct: gene rbcL; Rubisco purified from rice leaves (cv. Nipponbare), L8S8 complex, carbamylated; with Rubisco small subunit (L8S8 holoenzyme)
Briefly: […]CO2 incorporation assay with purified Rubisco, dose-response and Vmax/Km kinetics (competitive inhibition). To be noted: read-out: % inhibition at 12 mM. In kind it is biochemical.

The test system of data set [2] is O=C(COP(=O)(O)O)[C@H](O)[C@H](O)COP(=O)(O)O. Put plainly: purified protein. The following applies: Mg2+; carbamylated Lys201 (activator CO2) catalytic site.
For data set [3], the target named is T1, Rubisco (ribulose-1,5-bisphosphate carboxylase/oxygenase), carbamylated rice enzyme. Put plainly: biochemical. Also on record: 14CO2 incorporation by purified activated rice Rubisco; apparent Ki from Michaelis-Menten kinetics. To be noted: noncompetitive-like, apparent Ki. Here is the method:
Water was used as control and for each metabolite an intermediate and the highest concentration were used, with the exceptions of CABP for which the maximum concentration was 0.2 µM (as at the maximum concentration 0.3 µM the activity was very low) and for 3-PGA we used 8 and 12 mM (as these were the concentrations that affected Rubisco activity under saturating substrate concentrations). Basic assay buffer (100 mM Bicine-NaOH, pH 8.2, 20 mM MgCl2 and 2 mM KH2PO4) was sparged with compressed air which passed through soda lime and 1 M NaOH to remove CO2. […] The incubation with metabolite and activity were performed as described above. Vmax and Km were calculated using the Michaelis-Menten equation [58]. […] The incubation and activity were performed as described above and the activity was expressed as % of control samples (where control is 100%). Given the constraints associated with two substrate Rubisco activity and its interaction with tight binding inhibitions, we used a simplistic approximation to estimate apparent inhibitor constants (Kiapp) based on the Michaelis-Menten equations [59] (eqn 1) and on the ‘quotient velocity plot’ [60] (eqn 2). Where [I] is the inhibitor concentration and α was estimated according to the inhibition type: […]

For data set [4] the target is unchanged. Briefly: […]CO2 incorporation assay with purified Rubisco, dose-response and Vmax/Km kinetics. The format is biochemical.
Data set [5] has the same target. The data set is described as above. In kind it is biochemical. The following applies: read-out: % inhibition at 0.3 μM.
Setting [6] is: Eq. 1 (Michaelis-Menten), read-out: Ki^app (Eq. 1).
Setting [7] is: Eq. 2 (quotient velocity plot), read-out: Ki^app (Eq. 2).

T1 sequence (Q0INY7 47-175, other chains not shown): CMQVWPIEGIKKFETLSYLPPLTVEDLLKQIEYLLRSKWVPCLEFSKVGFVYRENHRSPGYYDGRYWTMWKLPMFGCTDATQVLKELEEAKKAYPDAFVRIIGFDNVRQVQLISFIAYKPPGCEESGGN

As to `O=C(O)[C@H](O)COP(=O)(O)O` [3-PGA], in data set [1], the inhibition at 12000 µM is approximately 30%.
In the case of “Rubisco (ribulose-1,5-bisphosphate carboxylase/oxygenase), carbamylated rice enzyme (Oryza sativa Japonica Group)”, the Michaelis-Menten constant (Km) in data set [2] was found to be 78.08 ± 3.29 µM.
With `O=C(O)[C@@](O)(COP(=O)(O)O)[C@H](O)[C@H](O)CO` [CA1P], the Ki in data set [3] (setting [6]) was found to be 440 ± 80 nM; in data set [3] (setting [7]), 440 ± 10 nM. Besides, the “14CO2 incorporation assay with purified Rubisco, dose-response and Vmax/Km kinet” value in data set [4] was “activity decreases by half at 0.3”.
In the case of `O=C(O)[C@@](O)(COP(=O)(O)O)[C@H](O)[C@H](O)COP(=O)(O)O` [CABP], the Ki in data set [3] (setting [6]) came out at 120 ± 20 nM; in data set [3] (setting [7]) it was 100 ± 20 nM. Besides, the inhibition at 0.3 µM in data set [5] is approximately 86%.

One may read the inhibition as the relative decrease from the control value, in per cent. As usually defined, the Km is the concentration of substrate that gives half-maximal velocity.
